Measured values: patent US20250313548A1 (Actio Biosciences, Inc., priority 2023, published 2025)

Target: human, KCNT1 (Homo sapiens (Human), UniProt Q5JUK3)
Test: FLIPR Tl/K Flux Assay
Assay type: cell-based
Conditions: HEK293 cells stably expressing human KCNT1; Tl+ flux stimulated with EC80 of agonist Loxapine
Outline: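 HEK293 cells stably expressing human KCNT1 were loaded with FLIPR potassium dye in HEPES/HBSS pH 7.4 with 5 mM probenecid, 1 h at 25 °C, then given test compound for 30 min at 25 °C. Tl+ flux was triggered with chloride-free buffer containing Tl+ and EC80 loxapine and read 160 s. IC50 came from Hill fits of % inhibition.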

Sequence of human, KCNT1 (Q5JUK3 whole entry): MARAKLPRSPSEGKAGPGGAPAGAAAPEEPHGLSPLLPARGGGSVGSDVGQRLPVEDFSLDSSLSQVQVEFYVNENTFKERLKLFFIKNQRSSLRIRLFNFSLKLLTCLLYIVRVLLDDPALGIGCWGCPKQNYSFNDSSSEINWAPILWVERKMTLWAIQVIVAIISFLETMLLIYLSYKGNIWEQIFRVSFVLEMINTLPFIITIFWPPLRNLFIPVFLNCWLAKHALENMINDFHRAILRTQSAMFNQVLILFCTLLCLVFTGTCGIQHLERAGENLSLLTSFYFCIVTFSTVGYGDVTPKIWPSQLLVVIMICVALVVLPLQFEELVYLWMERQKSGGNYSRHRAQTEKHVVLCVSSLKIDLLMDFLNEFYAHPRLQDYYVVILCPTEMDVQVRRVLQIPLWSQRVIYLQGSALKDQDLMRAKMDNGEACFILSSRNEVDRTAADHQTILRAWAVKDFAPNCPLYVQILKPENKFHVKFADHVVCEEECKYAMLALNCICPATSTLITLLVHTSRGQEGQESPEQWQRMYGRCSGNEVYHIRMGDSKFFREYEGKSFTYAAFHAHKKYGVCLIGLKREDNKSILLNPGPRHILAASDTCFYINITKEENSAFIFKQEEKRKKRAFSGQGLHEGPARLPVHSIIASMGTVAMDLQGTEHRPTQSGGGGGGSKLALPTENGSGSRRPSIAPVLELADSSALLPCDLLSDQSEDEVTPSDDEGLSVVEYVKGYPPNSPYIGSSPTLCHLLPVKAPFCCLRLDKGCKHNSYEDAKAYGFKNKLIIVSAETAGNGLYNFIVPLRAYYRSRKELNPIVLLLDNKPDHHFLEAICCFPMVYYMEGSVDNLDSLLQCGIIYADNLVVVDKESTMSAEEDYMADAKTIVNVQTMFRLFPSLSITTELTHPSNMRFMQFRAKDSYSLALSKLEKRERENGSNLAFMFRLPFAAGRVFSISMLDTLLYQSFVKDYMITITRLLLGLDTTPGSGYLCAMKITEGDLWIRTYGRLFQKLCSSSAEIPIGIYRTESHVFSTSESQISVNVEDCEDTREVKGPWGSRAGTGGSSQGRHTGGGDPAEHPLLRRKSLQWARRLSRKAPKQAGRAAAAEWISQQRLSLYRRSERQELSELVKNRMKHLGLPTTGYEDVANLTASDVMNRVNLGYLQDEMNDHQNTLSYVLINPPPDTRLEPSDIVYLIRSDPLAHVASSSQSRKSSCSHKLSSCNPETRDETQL

| Compound | IC50 [µM] |
| --- | --- |
| O=C(N[C@H]1CCn2nc(-c3cc(C4CC4)ncc3F)cc21)C12CC(C(F)(F)F)(C1)C2 [Compound I-559a, (S)-N-(2-(2-Cyclopropyl-5-fluoropyridin-4-yl)-5,6-dihydro-4H-pyrrolo[1,2-b]pyrazol-4-yl)-3-(trifluoromethyl)bicyclo[1.1.1]pentane-1-carboxamide] | < 0.25 |
| COc1cc(-c2nc3n(n2)CCC[C@H]3NC(=O)c2cc(C(F)(F)F)nn2C)ccn1 [Compound I-474b] | > 1 |
| O=C(NC1CCc2cnc(-c3ccnc(C(F)(F)F)c3)cc21)c1cc(F)cc(F)c1 (stereo not drawn) [Compound I-478] | < 0.25 |
| Cn1nc(C(F)(F)F)cc1C(=O)N[C@H]1CCCc2nc(-c3cc(C4CC4)ncc3F)oc21 [Compound I-166a, (S)—N-(2-(2-Cyclopropyl-5-fluoropyridin-4-yl)-4,5,6,7-tetrahydrobenzo[d]oxazol-7-yl)-1-methyl-3-(trifluoromethyl)-1H-pyrazole-5-carboxamide] | < 0.25 |
| Cn1nc(C(F)(F)F)nc1C(=O)N[C@H]1CCn2nc(-c3ccnc(C4CC4)c3)cc21 [Compound I-205a, (S)-N-(2-(2-Cyclopropylpyridin-4-yl)-5,6-dihydro-4H-pyrrolo[1,2-b]pyrazol-4-yl)-1-methyl-3-(trifluoromethyl)-1H-1,2,4-triazole-5-carboxamide] | < 0.25 |
| O=C(N[C@H]1CCCn2nc(-c3ccnc(C(F)(F)F)c3)cc21)c1nccc(C(F)(F)F)n1 [Compound I-438a] | > 1 |
| Cn1nc(C(F)(F)F)cc1C(=O)N[C@H]1CCCc2nc(-c3ccnc(C4CC4)c3)oc21 [Compound I-180a, (S)-N-(2-(2-Cyclopropylpyridin-4-yl)-4,5,6,7-tetrahydrobenzo[d]oxazol-7-yl)-1-methyl-3-(trifluoromethyl)-1H-pyrazole-5-carboxamide] | < 0.25 |
| Cn1nc(C(F)(F)F)cc1C(=O)NC1CCCc2nc(-c3ccnc(C(F)(F)F)c3)oc21 (stereo not drawn) [Compound I-83] | < 0.25 |
| O=C(N[C@H]1CCCc2nc(-c3ccnc(C4CC4)c3)oc21)c1cc(Cl)cc(Cl)c1 [Compound I-153a, (S)-3,5-Dichloro-N-(2-(2-cyclopropylpyridin-4-yl)-4,5,6,7-tetrahydrobenzo[d]oxazol-7-yl)benzamide] | < 0.25 |
| O=C(N[C@@H]1CCc2nn(-c3ccnc(C(F)(F)F)c3)cc21)c1cc(F)cc(F)c1 [Compound I-100b] | > 1 |
| CCOc1cc(-n2cc3c(n2)CCCC[C@H]3NC(=O)c2cccc(C)c2)ccn1 [Compound I-361b] | > 1 |
| Cn1nc(C(F)(F)F)cc1C(=O)N[C@H]1CCc2nn(-c3cc(C4CC4)ncc3F)cc21 [Compound I-190a, (S)-N-(2-(2-Cyclopropyl-5-fluoropyridin-4-yl)-2,4,5,6-tetrahydrocyclopenta[c]pyrazol-4-yl)-1-methyl-3-(trifluoromethyl)-1H-pyrazole-5-carboxamide] | < 0.25 |
| CC(F)(F)c1cc(-c2cc3n(n2)CC[C@@H]3NC(=O)c2cccc(C#N)c2)ccn1 [Compound I-261a, (S)-3-Cyano-N-(2-(2-(1,1-difluoroethyl)pyridin-4-yl)-5,6-dihydro-4H-pyrrolo[1,2-b]pyrazol-4-yl)benzamide] | < 0.25 |
| COc1cc(-n2cc3c(n2)CCCC3NC(=O)c2cc(C(F)(F)F)nn2C)ccn1 (racemic) [Compound I-25, (rac)-N-(2-(2-Methoxypyridin-4-yl)-4,5,6,7-tetrahydro-2H-indazol-4-yl)-1-methyl-3-(trifluoromethyl)-1H-pyrazole-5-carboxamide] | 0.25 to 0.5 |
| CC(C)(C)C(=O)N[C@H]1CCc2nn(-c3ccnc(C(F)(F)F)c3)cc21 [Compound I-104a] | 0.5 to 1 |
| CCc1cc(F)cc(C(=O)N[C@H]2CCc3nn(-c4ccnc(C(F)(F)F)c4)cc32)c1 [Compound I-127a, (S)-3-Ethyl-5-fluoro-N-(2-(2-(trifluoromethyl)pyridin-4-yl)-2,4,5,6-tetrahydrocyclopenta[c]pyrazol-4-yl)benzamide] | < 0.25 |
| COc1cc(-c2cc3n(n2)CC[C@H]3NC(=O)c2cc(C(F)(F)F)nn2C)c(C(F)(F)F)cn1 [Compound I-172b] | > 1 |
| Cn1cc(C(=O)N[C@H]2CCCn3nc(-c4ccnc(C(F)(F)F)c4)cc32)c(C(F)F)n1 [Compound I-415a] | < 0.25 |
| N#Cc1cc(C(=O)N[C@H]2CCc3nn(-c4ccnc(C(F)(F)F)c4)cc32)ccc1F [Compound I-267a, (S)-3-Cyano-4-fluoro-N-(2-(2-(trifluoromethyl)pyridin-4-yl)-2,4,5,6-tetrahydrocyclopenta[c]pyrazol-4-yl)benzamide] | < 0.25 |
| COc1cc(-c2nc3c(o2)[C@@H](NC(=O)c2cccc(C(F)(F)F)c2)CCC3)c(F)cn1 [Compound I-177a, (S)-N-(2-(5-Fluoro-2-methoxypyridin-4-yl)-4,5,6,7-tetrahydrobenzo[d]oxazol-7-yl)-3-(trifluoromethyl)benzamide] | < 0.25 |
| Cn1nc(C(F)(F)F)cc1C(=O)NC1CCCCn2nc(-c3ccnc(C4CC4)c3)cc21 (single isomer, unassigned) [Compound I-67] | < 0.25 |

| Compound | IC50 [µM] |
| --- | --- |
| O=C(N[C@H]1CCCc2cnc(-c3ccnc(C(F)(F)F)c3)cc21)c1cc(F)cc(F)c1 [Compound I-461a] | < 0.25 |
| O=C(N[C@H]1CCCn2nc(-c3ccnc(C(F)(F)F)c3)cc21)c1cccc(C(F)(F)F)c1F [Compound I-419a] | < 0.25 |
| Cc1cnc(C(F)(F)F)cc1-c1cc2n(n1)CCCC[C@@H]2NC(=O)c1cc(C(F)(F)F)nn1C [Compound I-311a, (S)-1-Methyl-N-(2-(5-methyl-2-(trifluoromethyl)pyridin-4-yl)-5,6,7,8-tetrahydro-4H-pyrazolo[1,5-a]azepin-4-yl)-3-(trifluoromethyl)-1H-pyrazole-5-carboxamide] | < 0.25 |
| COc1cc(-n2cc3c(n2)CC[C@@H]3NC(=O)c2cc(F)cc(F)c2)ccn1 [Compound I-446a] | < 0.25 |
| CC(C)(C)C(=O)N[C@@H]1CCc2nn(-c3ccnc(C(F)(F)F)c3)cc21 [Compound I-104b] | > 1 |
| O=C(N[C@H]1CCCc2nc(-c3cc(C4CC4)ncc3F)oc21)c1cccc(C(F)(F)F)c1 [Compound I-165a, (S)-N-(2-(2-Cyclopropyl-5-fluoropyridin-4-yl)-4,5,6,7-tetrahydrobenzo[d]oxazol-7-yl)-3-(trifluoromethyl)benzamide] | < 0.25 |
| O=C(N[C@H]1CCn2nc(-c3ccnc(C4CC4)c3)cc21)C12CC(CC(F)(F)F)(C1)C2 [Compound I-584a, (S)-N-(2-(2-Cyclopropylpyridin-4-yl)-5,6-dihydro-4H-pyrrolo[1,2-b]pyrazol-4-yl)-3-(2,2,2-trifluoroethyl)bicyclo[1.1.1]pentane-1-carboxamide] | < 0.25 |
| O=C(N[C@H]1CCCn2nc(-c3cc(C(F)(F)F)ncc3F)cc21)c1ccnc(OC(F)(F)F)c1 [Compound I-199a, (S)-N-(2-(5-Fluoro-2-(trifluoromethyl)pyridin-4-yl)-4,5,6,7-tetrahydropyrazolo[1,5-a]pyridin-4-yl)-2-(trifluoromethoxy)isonicotinamide] | < 0.25 |
| O=C(N[C@H]1CCCc2nn(-c3ccnc(C(F)(F)F)c3)cc21)c1cc(C(F)(F)F)nn1C1CC1 [Compound I-9a, (S)-1-Cyclopropyl-3-(trifluoromethyl)-N-(2-(2-(trifluoromethyl)pyridin-4-yl)-4,5,6,7-tetrahydro-2H-indazol-4-yl)-1H-pyrazole-5-carboxamide] | < 0.25 |
| O=C(N[C@H]1CCCc2oc(-c3ccnc(C4CC4)c3)nc21)c1cncc(C(F)(F)F)c1 [Compound I-137a, (S)-N-(2-(2-Cyclopropylpyridin-4-yl)-4,5,6,7-tetrahydrobenzo[d]oxazol-4-yl)-5-(trifluoromethyl)nicotinamide] | < 0.25 |
| O=C(N[C@@H]1CCCc2nc(-c3ccnc(C4CC4)c3)oc21)c1cncc(C(F)(F)F)n1 [Compound I-509b] | > 1 |
| CC(C)c1nc(C(=O)N[C@H]2CCCn3nc(-c4ccnc(C(F)(F)F)c4)cc32)co1 [Compound I-441a] | < 0.25 |
| CC(F)(F)c1cc(-c2nc3c(o2)CCCC3NC(=O)c2cn(C(F)(F)F)nc2C(F)F)ccn1 (single isomer, unassigned) [Compound I-535] | < 0.25 |
| Cn1ncnc1C(=O)N[C@H]1CCn2nc(-c3ccnc(C(F)(F)F)c3)cc21 [Compound I-225a] | > 1 |
| Cn1nc(C(F)(F)F)cc1C(=O)N[C@@H]1CCCCc2nn(-c3ccnc(C4CC4)c3)cc21 [Compound I-56b] | 0.5 to 1 |
| COc1cc(-n2cc3c(n2)CC[C@@H]3NC(=O)c2cc(C(F)(F)F)nn2C)cc(C)n1 [Compound I-336a, (S)-N-(2-(2-Methoxy-6-methylpyridin-4-yl)-2,4,5,6-tetrahydrocyclopenta[c]pyrazol-4-yl)-1-methyl-3-(trifluoromethyl)-1H-pyrazole-5-carboxamide] | 0.5 to 1 |
| Cc1cnc(C(F)(F)F)cc1-c1cc2n(n1)CCC[C@@H]2NC(=O)c1cc(C(F)(F)F)nn1C [Compound I-122a, (S)-1-Methyl-N-(2-(5-methyl-2-(trifluoromethyl)pyridin-4-yl)-4,5,6,7-tetrahydropyrazolo[1,5-a]pyridin-4-yl)-3-(trifluoromethyl)-1H-pyrazole-5-carboxamide] | < 0.25 |
| COc1cc(-c2nc3c(o2)[C@@H](NC(=O)c2cccc(OC(F)(F)F)c2)CCC3)ccn1 [Compound I-151a, (S)-N-(2-(2-Methoxypyridin-4-yl)-4,5,6,7-tetrahydrobenzo[d]oxazol-7-yl)-3-(trifluoromethoxy)benzamide] | < 0.25 |
| O=C(N[C@H]1CCc2nn(-c3ccnc(C4CC4)c3)cc21)c1cc(F)cc(F)c1 [Compound I-462a] | < 0.25 |
| Cn1nc(C(F)(F)F)cc1C(=O)N[C@H]1CCCn2nc(-c3ccnc(OC(F)F)c3)cc21 [Compound I-378a] | < 0.25 |
| COc1cc(-c2cc3n(n2)CCCC[C@@H]3NC(=O)c2cc(F)cc(C#N)c2)ccn1 [Compound I-312a, (S)-3-Cyano-5-fluoro-N-(2-(2-methoxypyridin-4-yl)-5,6,7,8-tetrahydro-4H-pyrazolo[1,5-a]azepin-4-yl)benzamide] | < 0.25 |
